# Measured values: patent US9393213B2, “Nanocrystals, compositions, and methods that aid particle transport in mucus” (Kala Pharmaceuticals, Inc., priority 2012, dated 2016)
# Key:
# [1] = Description: [formula] where <Vmean> is the ensemble average trajectory-mean velocity, Vmean is the velocity of an individual particle averaged over its trajectory, the sample is the particle of interest, the negative control is a 200 nm carboxylated polystyrene particle, and the positive control is a 200 nm polystyrene particle densely PEGylated with 2 kDa-5 kDa PEG.
# For instance, a fluorescent microscope equipped with a CCD camera can be used to capture 15 s movies at a temporal resolution of 66.7 ms (15 frames/s) under 100× magnification from several areas within each sample for each type of particles: sample, negative control, and positive control.
# In a typical experiment, ≦0.5 uL of a nanosuspension (diluted if necessary to the surfactant concentration of ˜1%) was added to 20 μl of fresh CVM along with controls. […] Using a fluorescent microscope equipped with a CCD camera, 15 s movies were captured at a temporal resolution of 66.7 ms (15 frames/s) under 100× magnification from several areas within each sample for each type of particles: sample (pyrene), negative control, and positive control (natural blue fluorescence of pyrene allowed observing of pyrene nanoparticles separately from the controls). […] To enable easy comparison between different samples and normalize velocity data with respect to natural variability in penetrability of CVM samples, relative sample velocity <Vmean>rel, was determined according to the formula shown in Equation 1.
# CVM was collected by inserting a Softcup® menstrual collection cup into the vaginal tract as described by the product literature for between 30 seconds and 2 minutes. After removal the CVM was then collected from the Softcup® by gentle centrifugation at ˜30×G to ˜120×G in a 50 mL centrifuge tube. In Example 1, CVM was used undiluted and fresh (stored for no longer than 7 days under refrigerated conditions). Barrier and transport of all CVM samples used in Example 1 were verified with negative (200 nm carboxylated polystyrene particles) and positive (200 nm polystyrene particles modified with PEG 5K) controls. In Example 2, CVM was lyophilized and reconstituted. In Example 2, mucus was frozen at −50° C. and then lyophilized to dryness. Samples were then stored at −50° C. Before use, the mucus was reconstituted by grinding the solid into a fine powder using a mortar and pestle followed by water addition to a final volume equal to the original volume to 2 times the original volume. The reconstituted mucus was then incubated at 4° C. for 12 hours and used as described in Example 2. Barrier and transport of all CVM samples used in Example 2 were verified with negative (200 nm carboxylated polystyrene particles) and positive (F127 coated 200 nm polystyrene particles) controls.
# [2] = Acute vaginal toxicity by H&E staining 24 h after intravaginal administration; assay type: in vivo, DP mice
# Procedure: Standard hematoxylin and eosin (H&E) staining was used to investigate potential toxic effects of intravaginally administered nanoparticles. […] The same (BD-) MPPs and (BD-) CPs that were used for distribution and retention studies were tested for toxicity.
# Five μL of particles or control solutions were administered intravaginally to the DP mouse model. After 24 h, whole cervicovaginal tracts were obtained and fixed in 4% paraformaldehyde solution for 24 h. Tissues were placed in 70% ethanol and taken to the Johns Hopkins Reference Histology Laboratory for paraffin embedding and standard H&E staining.
# [3] = test system: IL-1β, IL-1α, TNF-α, and IL-6; experiment: Cytokine concentrations in cervicovaginal lavage after daily vaginal treatment for 7 days; conditions: day 8 after daily dosing for seven days
# Procedure: Because our ultimate goal was to test MPPs for protection against HSV-2, we compared an MPP formulation containing acyclovir monophosphate (ACVp) to N9, HEC placebo gel, PBS, and a gel vehicle (TFV vehicle) used in recent tenofovir clinical trials. Nanoparticle and control formulations were administered vaginally to Depo Provera-treated mice daily for seven days.
# Twenty μL of each test agent was administered intravaginally to the DP mouse model once-a-day for seven (7) days. […] On the eighth day, each mouse was lavaged twice with 50 μL of PBS. Each lavage sample was diluted with an additional 200 μL of PBS and centrifuged to remove the mucus plug. Supernatant (200 μL) was removed and split into 50 μL for each of the four (IL-1β, IL-1α, TNF-α, and IL-6) Quantikine ELISA kits (R&D Systems, Inc.). ELISAs were conducted per the manufacturer's instructions.
# HSV-2 strain G = experiment: HSV-2 vaginal challenge in mice; assay type: in vivo, CF-1 mice; conditions: intravaginal 30 min before challenge
# Procedure: Female 6-8 week old CF-1 mice were subcutaneously injected with medroxyprogesterone acetate, and one week later received 20 μl of test agent or PBS intravaginally with a fire-polished positive displacement capillary pipette (Wiretrol, Drummond Scientific). Thirty minutes later, mice were challenged with 10 uL of inoculum containing HSV-2 strain G (ATCC #VR-734, 2.8×10^7 TCID50 per mL). […] Mice were assessed for infection three days later after inoculation by culturing a PBS vaginal lavage on human foreskin fibroblasts (Diagnostic Hybrids, MRHF Lot #440318W), as described previously (R. A. Cone, T. Hoen, X. Wong, R. Abusuwwa, D. J. Anderson, T. R. Moench, Vaginal microbicides: detecting toxicities in vivo that paradoxically increase pathogen transmission. BMC Infect Dis 6, 90 (2006)).
# Both the drug and the virus were administered intravaginally.
# ACVp nanoparticles were formulated with the same muco-inert coating used for all other studies. […] To study the distribution and retention of nanoparticles at the vaginal mucosal surface and the effects of repeated dosing, 6-8 week old CF-1 mice (Harlan) were used. Mice were housed in a reversed light cycle facility (12 h light/12 h dark). […] Journal of Virology 79, 3107-3116 (2005)).
# All data are presented as a mean with standard error of the mean (SEM) indicated. Statistical significance was determined by a two-tailed, Student's t-test (α=0.05) assuming unequal variance. In the case of HSV-2 challenge, statistical significance was determined using Fisher's exact test, two-tailed distribution.
# HSV-2 = conditions: single vaginal pretreatment with 50 mg/mL (5%); guinea pigs; cited from earlier work
# [4] = assay type: physicochemical
# Description: Tenofovir (TFV) is a potent antiviral drug used to treat infectious diseases. Due to the fact that tenofovir (TFV) is highly water soluble, a method was developed for formulating mucus-penetrating particles of tenofovir. […] In order to decrease the water solubility of TFV, interactions between cations and nucleotides/nucleotide analogs were exploited. TFV interacts very strongly with zinc cations (Zn), via the phosphonate group and the purine ring structure. This interaction with zinc causes TFV precipitation into crystals that can be stabilized with the coatings described herein, halting aggregation and determining the crystal surface properties. Additionally, Zn is naturally present in vaginal fluid and has known antimicrobial properties recently extended to include anti-HIV activity.
compound,measurement,setting,value
Tyloxapol,Sample (relative) <Vmean>rel,[1],−0.02
same,Sample <Vmean>,[1],0.42 um/s
Nonoxynol-9 [N9],inflammation in H&E-stained vaginal tissue,[2],acute inflammation
same,IL-1α level in vaginal lavage,[3],elevated
same,IL-1β level in vaginal lavage,[3],elevated
acyclovir monophosphate [Soluble ACV],% Infected,HSV-2 strain G; 1 mg/mL in PBS,84.0%
same,# Infected,"HSV-2 strain G; 1 mg/mL in PBS, 25 mice",21
same,% Infected,"HSV-2 strain G; 1 mg/mL in PBS, listed as Soluble ACVp",84%
same,% Infected,"HSV-2 strain G; 1 mg/mL in PBS, listed as soluble ACVp",84.0%
same,% Infected,HSV-2 strain G; 10 mg/mL in PBS,62.0%
same,# Infected,"HSV-2 strain G; 10 mg/mL in PBS, 100 mice",62
same,% Infected,"HSV-2 strain G; 10 mg/mL in PBS, listed as Soluble ACVp",62%
same,% Infected,"HSV-2 strain G; 10 mg/mL in PBS, listed as soluble ACVp",62.0%
same,% Infected,HSV-2 strain G; 10 mg/mL in Water,69.3%
same,# Infected,"HSV-2 strain G; 10 mg/mL in Water, 75 mice",52
same,animals infected compared to controls,HSV-2,70%
"C[C@H](Cn1cnc2c(N)ncnc21)OCP(=O)(O)O [TFV, tenofovir]",water solubility,[4],at least 15 mg/mL
Tween 80,Sample (relative) <Vmean>rel,[1],0.17
same,Sample <Vmean>,[1],0.94 um/s
